Results from patent US8273773B2 (priority 2008, dated 2012).

Key:
[1] = molecular target: T1, HCV polymerase (NS5B570n-Con1) (Hepatitis C virus genotype 1b, UniProt Q9WMX2); test: biochemical; set-up: species or system HCV Con1 strain;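 also: recombinant His-tagged enzyme from E. coli, radiolabeled nucleotide incorporation into acid-insoluble RNA read by scintillation after filtration, no-enzyme background subtracted, activity relative to positive control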
T1 construct: contains a 21 amino acid deletion at the C-terminus relative to the full-length HCV polymerase; 6-histidine (N); made in house; host or cells: E. coli strain BL21(DE) pLysS (pET17b)

[2] = IC50 HCV NS5B RNA Polymerase Assay, values without asterisk, 20 nM NS5B570n-Con1 enzyme, 20 nM cIRES RNA template

SMILES	IC50 [1, 2] [µM]	melting point [°C]	IC50 ([1]; IC50 HCV NS5B RNA Polymerase Assay (values with asterisk), values with asterisk: cIRES RNA template, 3 nM NS5B570n-Con1) [µM]
CC1(C)COc2c(-c3ccc[nH]c3=O)cc(/C=C/c3ccc(NS(C)(=O)=O)cc3)cc21 [II-2]	0.006	231 to 233	
COc1cc(-c2ccc[nH]c2=O)cc(C(C)(C)C)c1OC [I-26]	0.866	206.3 to 207.1	
COc1c(CCc2ccc(NS(C)(=O)=O)cc2)cc(-c2ccc(C)[nH]c2=O)cc1C(C)(C)C [I-64, N-(4-{2-[3-tert-Butyl-2-methoxy-5-(6-methyl-2-oxo-1,2-dihydro-pyridin-3-yl)-phenyl]-ethyl}-phenyl)-methanesulfonamide]	0.008	239 to 241	
COc1c(C(=O)Nc2cccc(CNS(C)(=O)=O)c2)cc(-c2ccc[nH]c2=O)cc1C(C)(C)C [I-112, 3-tert-Butyl-N-[3-(methanesulfonylamino-methyl)-phenyl]-2-methoxy-5-(2-oxo-1,2-dihydro-pyridin-3-yl)-benzamide]	0.048	145 to 147	
COc1c(CC(CN)c2ccc(NS(C)(=O)=O)cc2)cc(-c2ccc[nH]c2=O)cc1C(C)(C)C (stereo not shown) [I-191, N-(4-{1-Aminomethyl-2-[3-tert-butyl-2-methoxy-5-(2-oxo-1,2-dihydro-pyridin-3-yl)-phenyl]-ethyl}-phenyl)-methanesulfonamide]	0.027	158 to 160	
CC(=O)Nc1c(CCc2ccc(NS(C)(=O)=O)cc2)cc(C(C)(C)C)cc1-c1ccc[nH]c1=O [I-80, N-[4-tert-Butyl-2-[2-(4-methanesulfonylamino-phenyl)-ethyl]-6-(2-oxo-1,2-dihydro-pyridin-3-yl)-phenyl]-acetamide]	0.097	180 to 182	
CC(C)(C)c1cc(Cc2ccccc2)c(O)c(-c2ccc[nH]c2=O)c1 [I-17]	0.293	236 to 237	
CC(C)(C)c1cc(CO)c(O)c(-c2ccc[nH]c2=O)c1 [I-10]	1.6	167 to 168	
CC(C)(C)c1cc(-c2ccc[nH]c2=O)ccc1OC(F)F [I-6, 3-(3-tert-Butyl-4-difluoromethoxy-phenyl)-1H-pyridin-2-one]	2.57	174 to 175	
COc1c(NC(=O)c2ccccc2)cc(-c2ccc[nH]c2=O)cc1C(C)(C)C [I-58]	0.034	212 to 216	
CC(C)(C)c1cc(CCc2ccc(F)cc2)c(O)c(-c2ccc[nH]c2=O)c1 [I-20]	0.378	178 to 179	
COc1c(C(=O)c2cccc(O)c2)cc(-c2ccc[nH]c2=O)cc1C(C)(C)C [I-54]	0.009	145 to 148	
COc1c(O)cc(-c2ccc[nH]c2=O)cc1C(C)(C)C [I-23]	1.17	214 to 215	
COc1c(CCc2ccc(NS(C)(=O)=O)c(C)c2)cc(-c2ccc[nH]c2=O)cc1C(C)(C)C [I-110]	0.016	114 to 116	
COc1c(C(=O)c2cccc(C(N)=O)c2)cc(-c2ccc[nH]c2=O)cc1C(C)(C)C [I-63]	0.01	150 to 160	
Cc1cc(C(C)(C)C)cc(-c2ccc[nH]c2=O)c1O [I-11]	0.34	207 to 208.5	
COc1c(C(=O)Nc2ccc(CNS(C)(=O)=O)cc2)cc(-c2ccc[nH]c2=O)cc1C(C)(C)C [I-76]	0.062	213 to 216	
COc1c(CCc2ccc(N)nn2)cc(-c2ccc[nH]c2=O)cc1C(C)(C)C [I-128]	0.005	142 to 144	

SMILES	IC50 [1, 2] [µM]	melting point [°C]	IC50 ([1]; IC50 HCV NS5B RNA Polymerase Assay (values with asterisk), values with asterisk: cIRES RNA template, 3 nM NS5B570n-Con1) [µM]
COc1c(C(=O)c2cccc(CNS(C)(=O)=O)c2)cc(-c2ccc[nH]c2=O)cc1C(C)(C)C [I-65]	0.03	110 to 115	
COc1c(NC(=O)c2ccc(N)cc2Cl)cc(-c2ccc[nH]c2=O)cc1C(C)(C)C [I-25]	0.031	226 to 228	
COc1c(/C=C/c2ccc(NS(C)(=O)=O)cc2CO)cc(-c2ccc[nH]c2=O)cc1C(C)(C)C [I-205, N-(4-{(E)-2-[3-tert-Butyl-2-methoxy-5-(2-oxo-1,2-dihydro-pyridin-3-yl)-phenyl]-vinyl}-3-hydroxymethyl-phenyl)-methanesulfonamide]		140 to 142	0.002
COc1c(/C=C(\C)c2ccc(NS(C)(=O)=O)cc2)cc(-c2ccc[nH]c2=O)cc1C(C)(C)C [I-139, N-(4-{(E)-2-[3-tert-Butyl-2-methoxy-5-(2-oxo-1,2-dihydro-pyridin-3-yl)-phenyl]-1-methyl-vinyl}-phenyl)-methanesulfonamide]	0.008	292 to 294	
CNC(=O)Nc1ccc(CCc2cc(-c3ccc[nH]c3=O)cc(C(C)(C)C)c2)cc1 [I-86]	0.278	237 to 239	
COc1c(NC(=O)c2ccc(NS(C)(=O)=O)cc2Cl)cc(-c2ccc[nH]c2=O)cc1C(C)(C)C [I-116]	0.011	263 to 265	
CC(C)(C)c1cc(-c2ccccc2)c(O)c(-c2ccc[nH]c2=O)c1 [I-15]	2.92	235.8 to 237	
COc1c(C(=O)Nc2ccccc2)cc(-c2ccc[nH]c2=O)cc1C(C)(C)C [I-68]	0.107	288 to 290	
CC(C)(C)c1cc(CCc2ccc(NS(C)(=O)=O)cc2)cc(-c2ccc[nH]c2=O)c1 [I-74]	0.025	211 to 213	
COc1c(CC(C)(CN)c2ccc(NS(C)(=O)=O)cc2)cc(-c2ccc[nH]c2=O)cc1C(C)(C)C (stereo not shown) [I-197, N-(4-{1-Aminomethyl-2-[3-tert-butyl-2-methoxy-5-(2-oxo-1,2-dihydro-pyridin-3-yl)-phenyl]-1-methyl-ethyl}-phenyl)-methanesulfonamide]	0.084	240 to 242	
COc1c(CC(CN2CCOCC2)c2ccc(NS(C)(=O)=O)cc2)cc(-c2ccc[nH]c2=O)cc1C(C)(C)C (stereo not shown) [I-193]	0.012	138 to 140	
CC(C)(C)c1cc(Br)c(O)c(-c2ccc[nH]c2=O)c1 [I-13]	0.36	243.4 to 246.2	
CC(C)(C)c1cc(CCc2ccc(NS(C)(=O)=O)cc2)c(O)c(-c2ccc[nH]c2=O)c1 [I-51, N-(4-{2-[5-tert-Butyl-2-hydroxy-3-(2-oxo-1,2-dihydro-pyridin-3-yl)-phenyl]-ethyl}-phenyl)-methanesulfonamide]	0.01	96.4 to 135.6	
COc1c(CCc2ccc(NS(C)(=O)=O)cn2)cc(-c2ccc[nH]c2=O)cc1C(C)(C)C [I-124]	0.003	131 to 133	
Cc1cc(-c2ccc[nH]c2=O)cc(C(C)(C)C)c1 [I-3]	0.525	224 to 225	
CC(C)(C)c1cc(CCc2ccc(NS(C)(=O)=O)cc2)c(C#N)c(-c2ccc[nH]c2=O)c1 [I-87, N-(4-{2-[5-tert-butyl-2-cyano-3-(2-oxo-1,2-dihydro-pyridin-3-yl)-phenyl]-ethyl}-phenyl)-methanesulfonamide]	0.013	128 to 130	
COc1c(CCc2cnc(NS(C)(=O)=O)nc2)cc(-c2ccc[nH]c2=O)cc1C(C)(C)C [I-125]	0.016	282 to 283	
